# Data: patent US11076595B2, “1-(n,n-disubstituted carbamoyl) 4-(substituted sulfonyl)triazolin-5-one derivative, 4-(n,n-disubstituted carbamoyl) 1-(substituted sulfonyl)triazolin-5-one derivative, and herbicide containing said derivative as active ingredient” (HOKKO CHEMICAL INDUSTRY CO., LTD., priority 2017, dated 2021)
# Tests used:
# Experiment in all cases: Test Example 11: herbicidal effect test by soil treatment in paddy field
# Assay type in all cases: in vivo
# Conditions in all cases: 120 g/10a active ingredient, 14 days after treatment
# Echinochloa crus-galli = system: Echinochloa crus-galli
# From the text: (§1) A Wagner pot having an area of 1/10000 are was filled with paddy field soil and after adding water, a chemical fertilizer (N:P:K=17:17:17) was mixed, followed by puddling. Thereafter, 30 grains of each of Echinochloa crus-galli, broad-leaved weed (Lindernia pyxidaria, Monochoria vaginalis) and Scirpus juncoides seeds were sown to a depth of 0 to 1 cm. Immediately after the sowing, the pot was flooded, and the depth of water was kept at about 3 cm. The pot was subsequently managed in a glass greenhouse. Just after that, an emulsifiable concentrate prepared according to Formulation Example 15 by using the compound shown in Table 9 below was diluted with water, and a predetermined amount of the water-diluted formulation was added dropwise. The application rate of the active ingredient, by conversion, corresponded to 120 g per 10 are.
# (§2) This test was performed with two replications per one formulation concentration plot, and 14 days after the formulation treatments, the weed suppression rate (%) was determined according to the following equation (Math. 2). Weed suppression rate (%)=(1−average dry weight (g) of plants in treated plots/average dry weight (g) of plants in untreated plots)×100 [Math. 2]
# Lindernia pyxidaria = system: Lindernia pyxidaria
# From the text: as §1, §2
# Monochoria vaginalis = system: Monochoria vaginalis
# From the text: as §1, §2
# Scirpus juncoides = system: Scirpus juncoides
# From the text: as §1, §2
SMILES,Weed suppression rate (%) Echinochloa crus-galli (Echinochloa crus-galli) [%],Weed suppression rate (%) Lindemia pyxidaria (Lindernia pyxidaria) [%],Weed suppression rate (%) Monochoria vaginalis (Monochoria vaginalis) [%],Weed suppression rate (%) Scirpus juncoides (Scirpus juncoides) [%]
CC(C)N(C(=O)n1cnn(S(=O)(=O)c2ccc(Cl)cc2)c1=O)c1ccccc1F [Compound 11-578],90,80,80,90
CC(C)N(C(=O)n1cnn(S(=O)(=O)c2cccc(C(F)(F)F)c2)c1=O)c1c(F)cc(F)cc1F [Compound 11-727],90,80,60,80
CC(C)N(C(=O)n1cnn(S(=O)(=O)c2c(F)cccc2F)c1=O)c1ccc(F)cc1Cl [Compound 11-780],60,100,60,100
CC(C)N(C(=O)n1cnn(S(=O)(=O)c2ccc(C(C)(C)C)cc2)c1=O)c1ccc(C(F)(F)F)cc1F [Compound 11-699],90,90,70,30
Cc1ccc(S(=O)(=O)n2ncn(C(=O)N(c3ccc(Cl)cc3C)C(C)C)c2=O)cc1 [Compound 11-652],90,80,80,90
Cc1cc(F)ccc1N(C(=O)n1cnn(S(=O)(=O)c2ccccc2F)c1=O)C(C)C [Compound 11-415],80,70,70,30
CC(C)N(C(=O)n1cnn(S(=O)(=O)c2c(F)c(F)c(F)c(F)c2F)c1=O)c1ccc(F)c(F)c1F [Compound 11-814],70,90,70,30
CC(C)N(C(=O)n1cnn(S(=O)(=O)c2ccc(Cl)cc2)c1=O)c1c(F)c(F)cc(F)c1F [Compound 11-593],80,70,60,30
CC(C)N(C(=O)n1cnn(S(=O)(=O)c2ccc(C(F)(F)F)cc2)c1=O)c1ccc(F)cc1F [Compound 11-749],60,70,70,70
Cc1cc(Cl)ccc1N(C(=O)n1cnn(S(=O)(=O)c2ccccc2Cl)c1=O)C(C)C [Compound 11-527],90,80,80,90
CC(C)N(C(=O)n1cnn(S(=O)(=O)c2cccc(F)c2)c1=O)c1ccc(F)cc1Cl [Compound 11-445],100,70,60,100
CC(C)N(C(=O)n1cnn(S(=O)(=O)c2cccc(Cl)c2)c1=O)c1ccc(Cl)cn1 [Compound 11-574],90,80,40,50
CC(C)N(C(=O)n1cnn(S(=O)(=O)c2cccc(Cl)c2)c1=O)c1ccccc1 [Compound 11-539],80,90,40,40
Cc1cc(C)c(S(=O)(=O)n2ncn(C(=O)N(c3ccc(Cl)cc3C)C(C)C)c2=O)c(C)c1 [Compound 11-878],90,80,80,90
CC(C)N(C(=O)n1cnn(S(=O)(=O)c2ccc(Cl)cc2)c1=O)c1ccccc1 [Compound 11-577],40,60,0,0
Cc1ccc(S(=O)(=O)n2ncn(C(=O)N(c3ccc(Cl)cc3Br)C(C)C)c2=O)cc1 [Compound 11-649],90,70,60,60
CC(C)N(C(=O)n1cnn(S(=O)(=O)c2c(F)cccc2F)c1=O)c1ccc(C(F)(F)F)cc1F [Compound 11-790],80,90,30,90
CC(C)N(C(=O)n1cnn(S(=O)(=O)c2cccc(C(F)(F)F)c2)c1=O)c1ccc(F)c(F)c1F [Compound 11-726],100,90,30,30
CC(C)N(C(=O)n1cnn(S(=O)(=O)c2cccc(Cl)c2)c1=O)c1cccc(F)c1F [Compound 11-549],80,90,100,100
CCN(CC)C(=O)n1cnn(S(=O)(=O)c2ccc(Cl)cc2)c1=O [Compound 11-576],40,0,0,0
Cc1cc(F)ccc1N(C(=O)n1cnn(S(=O)(=O)c2ccccc2Cl)c1=O)C(C)C [Compound 11-525],60,90,90,60
Cc1cc(Cl)ccc1N(C(=O)n1cnn(S(=O)(=O)c2ccc(F)cc2)c1=O)C(C)C [Compound 11-490],90,80,80,90
CC(C)N(C(=O)n1cnn(S(=O)(=O)c2ccc(C(C)(C)C)cc2)c1=O)c1ccc(Br)cc1Cl [Compound 11-693],80,60,60,60
Cc1cc(C)c(S(=O)(=O)n2ncn(C(=O)N(c3ccc(C(F)(F)F)cc3F)C(C)C)c2=O)c(C)c1 [Compound 11-880],80,80,100,30
CC(C)N(C(=O)n1cnn(S(=O)(=O)c2ccc(Cl)cc2)c1=O)c1ccc(F)cc1Cl [Compound 11-595],90,90,70,60
Cc1ccc(N(C(=O)n2cnn(S(=O)(=O)c3c(F)cccc3F)c2=O)C(C)C)c(F)c1 [Compound 11-787],90,80,80,90
CC(C)N(C(=O)n1cnn(S(=O)(=O)CCl)c1=O)c1ccc(C(F)(F)F)cc1F [Compound 11-126],100,100,60,30
Cc1cc(C)c(S(=O)(=O)n2ncn(C(=O)N(c3c(F)cccc3F)C(C)C)c2=O)c(C)c1 [Compound 11-865],80,70,70,70
